Assay [1] concerns the target HPK1 (Homo sapiens (Human), UniProt Q92918). Kind of assay: HPK1 Lantha Binding Assay (Lanth). Conditions: 2 nM HPK1, 15 nM Tracer222, Morrison Ki fit, read-out: HPK1 Ki (nM), L = Lanth. The protocol: Example B2: HPK1 Lantha Binding Assay (“Lanth”)
Procedure: I. Compound Dilution:
The compounds to be tested were diluted by preparing 12.5 uL/well of 5 mM compound (100×) in columns 2 and 13 and 10 ul/well of DMSO in columns 3-12, 14-23, and wells A1-H1 and I24-P24 of the compound plate using a Bravo liquid handling platform. For the reference compound, the top concentration was 1 mM. To the plate was added 10 ul 2 mM staurosporine in wells J1-P1 and A24-H24. A 11 point 5-fold compound serial dilution was performed using the Bravo liquid handling platform. From the plate were transferred 2.5 ul of the solutions from column 2 and column 13 to the 10 ul of DMSO in columns 3 and 14 & so on. The compound plate was centrifuged at 2500 rpm for 1 min. From the compound plate was transferred 80 nl of the compounds into an assay plate using the Echo liquid handler system. One compound plate makes two assay plates. Each assay plate is sealed and stored in an N2 cabinet.
The following assay concentrations and times were used: 2 nM HPK1, 2 nM Eu-Anti-GST Ab, and 15 nM Tracer222, with 60 min incubation time.
III. HPK Lantha Binding Assay:
For the binding assay, 4 ul 2X HPK1 and Eu-anti-GST antibody were added to each well of the assay plate using a Multidrop reagent dispenser. The solutions were incubated in a 23 C incubator for 1 h. To each well of the assay plate was added 4 ul 2× Tracer-222 using a Multidrop reagent dispenser. The solutions were again incubated in a 23 C incubator for 1 h. The results of the assay were read using an Envision plate reader with the following parameters:TR_FRET, 340ex/615 and 665em; 100 usec Delay; and 200 usec integration.
Compound Ki was analyzed using Morrison ki fit model in XL-fit • a. fit=(1-((((E+x)+(Ki*(1+(S/Kd))))−(((((E+x)+(Ki*(1+(S/Kd))))^2)−((4*E)*x))^0.5))/(2*E))) • res=(y-fit) • b. Parameters: • E=enzyme concentration • S=Tracer222 concentration, Kd=Tracer222 Kd • All measurements reported using the same units (uM)
Exemplary compounds were tested in the binding assays.

The target of assay [2] is HPK1 (Homo sapiens (Human), UniProt Q92918, S171E/T165E). The assay can be described thus: HPK1-FL HTRF Enzymatic Assay (HTRF). It is filed as biochemical. The conditions noted are these: HPK full length T165E S171E 0.125 nM, ATP 1 mM, Biotin-SLP76 100 nM, read-out: HPK1 Ki (nM), H = HTRF. Put shortly: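 Full-length HPK1 double mutant, preincubated 30 min with compound, then phosphorylates Biotin-SLP-76 at 1 mM ATP for 60 min in HEPES pH 7.5/MgCl2/TCEP/Brij-35 buffer. Phospho-product detected by TR-FRET (Eu-anti-pSLP76, SA-XL665) after 60 min; 665/620 ratio gives % activity, from which Ki is determined.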

In assay [3] the test system is primary human pan T cells. The assay can be described thus: Human T-cell IL2 Induction Assay. Type of assay: cell-based. Conditions: anti-CD3/anti-CD28 stimulated, 4 hours. On the procedure:
Example B3: Human T-cell IL2 Induction Assay
Anti-CD3 and anti-CD28 activates TCR signaling in primary human pan T cells leading to IL-2 promoter induction. Secreted IL-2 in cell culture supernatant is detected by electrochemiluminescence using a capture antibody against IL-2 and an anti-IL-2 antibody labeled with SULFO-tag.
See www.mesoscale.com for additional electrochemiluminescence technology information.
Incubate primary human pan T cells with varying concentrations of test compounds for 30 minutes in a humidified incubator at 37° C. and 5% CO2. Transfer cells to a plate pre-coated with a fixed concentration of anti-human CD3 (determined separately for each donor lot) and add soluble anti-human CD28 (final concentration=1 μg/ml). Stimulate cells in a humidified incubator at 37° C. and 5% CO2 for 4 hours. Transfer 25 μl of supernatant to a MSD single spot plate pre-coated with an anti-human IL-2 antibody. Incubate MSD plate overnight at 4° C. with gentle shaking. Wash MSD plate 4× with wash buffer. Add SULFO-tagged detection antibody at a 1:50 dilution and incubate at room temperature shaking for 2 hours. Wash MSD plate 4× with wash buffer and add 150 μl 2×MSD read buffer. Read on an MSD instrument. Normalize data to stimulated/untreated controls to calculate % activity at each concentration of compound.
• Frozen Primary Human Pan-T Cells (StemCell Technologies #70024) • anti-human CD3 (OKT3 clone) (eBioscience #16-0037-81) • anti-human CD28 (CD28.2 clone) (BD #555725) • 96-well Human IL-2 tissue culture kit (MSD #K151AHB-4) Instrumentation: • Biomek FX for liquid handling (Beckman Coulter) • MSD SECTOR S 600 (Meso Scale Discovery)
Exemplary compounds of Formula (I) were tested in the human T-cell IL-2 induction assays. The % increase measured for IL-2 in cells treated by the test compounds relative to untreated cells are provided in Table B2 for certain compounds.

Chain of HPK1 (Homo sapiens (Human), UniProt Q92918, S171E/T165E) (Q92918 whole entry T165E/S171E): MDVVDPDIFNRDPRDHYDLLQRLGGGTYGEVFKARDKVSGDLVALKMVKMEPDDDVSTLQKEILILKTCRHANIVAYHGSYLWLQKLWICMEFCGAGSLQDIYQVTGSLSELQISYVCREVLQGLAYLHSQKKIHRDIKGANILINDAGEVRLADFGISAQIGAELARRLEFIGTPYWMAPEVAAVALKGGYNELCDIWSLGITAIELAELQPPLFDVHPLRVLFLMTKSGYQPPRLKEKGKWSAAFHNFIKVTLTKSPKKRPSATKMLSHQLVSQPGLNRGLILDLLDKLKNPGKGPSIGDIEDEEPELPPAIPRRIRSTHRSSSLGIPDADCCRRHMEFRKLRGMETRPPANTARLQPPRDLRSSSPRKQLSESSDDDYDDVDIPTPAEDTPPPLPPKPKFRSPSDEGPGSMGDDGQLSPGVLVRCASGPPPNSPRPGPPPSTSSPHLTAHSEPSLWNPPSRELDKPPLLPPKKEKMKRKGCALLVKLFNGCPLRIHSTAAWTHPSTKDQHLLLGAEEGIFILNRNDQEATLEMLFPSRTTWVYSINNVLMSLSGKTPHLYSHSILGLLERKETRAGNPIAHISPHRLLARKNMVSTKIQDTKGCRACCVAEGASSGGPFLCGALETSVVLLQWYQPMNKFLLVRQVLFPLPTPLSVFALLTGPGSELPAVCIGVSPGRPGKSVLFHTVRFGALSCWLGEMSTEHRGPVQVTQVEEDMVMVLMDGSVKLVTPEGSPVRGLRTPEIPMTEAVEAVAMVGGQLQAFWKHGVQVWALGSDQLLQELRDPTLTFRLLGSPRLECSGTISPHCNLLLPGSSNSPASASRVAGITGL
Chain of HPK1 (Homo sapiens (Human), UniProt Q92918) (Q92918 1-346): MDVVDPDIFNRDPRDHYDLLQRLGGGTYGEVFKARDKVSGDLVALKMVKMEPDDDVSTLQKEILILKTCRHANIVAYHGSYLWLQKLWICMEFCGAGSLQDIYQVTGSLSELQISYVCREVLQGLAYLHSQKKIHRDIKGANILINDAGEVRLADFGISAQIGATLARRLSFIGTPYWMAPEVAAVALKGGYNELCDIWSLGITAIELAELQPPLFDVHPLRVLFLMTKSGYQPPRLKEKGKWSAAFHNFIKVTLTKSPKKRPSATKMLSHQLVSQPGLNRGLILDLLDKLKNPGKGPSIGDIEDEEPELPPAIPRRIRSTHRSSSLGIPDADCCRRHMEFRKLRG

`CN1CCC(Cn2cc(Nc3cc4cc(-c5c(Cl)cccc5Cl)ccc4cn3)cn2)C1` (racemic) [Compound 102, (+/-)-6-(2,6-dichlorophenyl)-N-(1-((1-methylpyrrolidin-3-yl)methyl)-1H-pyrazol-4-yl)isoquinolin-3-amine]: the Ki (commonly a measure of affinity in units of concentration, obtained from inhibition or displacement) at HPK1 [1] stood at 68 nM. The same measure, in the same setting: with `Clc1cccc(Cl)c1-c1ccc2cnc(Nc3cnn(C4CCOC4)c3)cc2c1` (racemic) [Compound 103, (+/-)-6-(2,6-dichlorophenyl)-N-(1-(tetrahydrofuran-3-yl)-1H-pyrazol-4-yl)isoquinolin-3-amine] the figure was 180 nM; with `Clc1cccc(Cl)c1-c1ccc2cnc(Nc3ccncn3)cc2c1` [Compound 101, 6-(2,6-dichlorophenyl)-N-(pyrimidin-4-yl)isoquinolin-3-amine], 110 nM.

Take `Fc1cccc(Cl)c1-c1ccc2cnc(Nc3ccncn3)cc2c1` [Compound 104, 6-(2-chloro-6-fluorophenyl)-N-(pyrimidin-4-yl)isoquinolin-3-amine]: the Ki at HPK1 [1] stood at 57 nM. The same measure, in the same setting: to `Cc1ccncc1-c1ccc2cnc(Nc3cc(C(F)F)ccn3)cc2c1` [Compound 106, N-(4-(difluoromethyl)pyridin-2-yl)-6-(4-methylpyridin-3-yl)isoquinolin-3-amine] belongs 6.6 nM.

In the case of `Cc1cc(Nc2cc3cc(-c4cnccc4C)ccc3cn2)ncn1` [Compound 107, 6-(4-methylpyridin-3-yl)-N-(6-methylpyrimidin-4-yl)isoquinolin-3-amine], at HPK1 [1], the inhibitory constant (Ki) was found to be 9 nM.

Turning to `Cc1ccnc(Nc2cc3cc(-c4cnccc4C)ccc3cn2)c1` [Compound 108, N-(4-methylpyridin-2-yl)-6-(4-methylpyridin-3-yl)isoquinolin-3-amine], the inhibitory constant (Ki) at HPK1 [1] worked out at 4.4 nM. For `Cc1c(N)cncc1-c1cc2cc(Nc3cc4n(n3)CC(=O)N(C(C)C)CC4)ncc2c(F)c1F` [Compound 118, 2-((6-(5-amino-4-methylpyridin-3-yl)-7,8-difluoroisoquinolin-3-yl)amino)-6-isopropyl-5,6-dihydro-4H-pyrazolo[1,5-d][1,4]diazepin-7(8H)-one], the Ki on HPK1 [2] worked out at 0.065 nM. In addition, the “% IL-2 increase relative to untreated cells” value in assay [3] (assayed concentration 0.31 μM) amounted to 400%. Take `Cc1c(N)cncc1-c1cc2cc(Nc3cc4n(n3)CC(=O)N(C(C)C)CC4)ncc2cc1F` [Compound 119, 2-((6-(5-amino-4-methylpyridin-3-yl)-7-fluoroisoquinolin-3-yl)amino)-6-isopropyl-5,6-dihydro-4H-pyrazolo[1,5-d][1,4]diazepin-7(8H)-one]: at HPK1 [2], the Ki amounted to 0.05 nM. Also, in assay [3] (assayed concentration 0.10 μM), the “% IL-2 increase relative to untreated cells” value was found to be 542%. Turning to `Cc1c(N)cncc1-c1cc2cc(Nc3cc4n(n3)CC(=O)N(C(C)C)CC4)ncc2c(C)c1C#N` [Compound 130, 6-(5-amino-4-methyl-3-pyridyl)-3-[(6-isopropyl-7-oxo-5,8-dihydro-4H-pyrazolo[1,5-d][1,4]diazepin-2-yl)amino]-8-methyl-isoquinoline-7-carbonitrile], on HPK1 [2], the Ki was 0.068 nM. Besides, the “% IL-2 increase relative to untreated cells” value in assay [3] (assayed concentration 0.10 μM) was 308%. As for `Cc1c(N)cncc1-c1cc2cc(Nc3cc4n(n3)Cc3nncn3CC4)ncc2cc1F` [Compound 139, N-(6-(5-amino-4-methylpyridin-3-yl)-7-fluoroisoquinolin-3-yl)-5,6-dihydro-11H-pyrazolo[1,5-d][1,2,4]triazolo[4,3-a][1,4]diazepin-8-amine], the inhibition constant (Ki) at HPK1 [2] came out at 0.076 nM. In assay [3] (assayed concentration 0.31 μM), the “% IL-2 increase relative to untreated cells” value is on record as 154%. Turning to `Cc1c(-c2cc3cc(Nc4cc5n(n4)CC(=O)N(C(C)C)C[C@@H]5O)ncc3cc2F)cnc2c1NCCO2` [Compound 141b, (S)-2-((7-fluoro-6-(8-methyl-2,3-dihydro-1H-pyrido[2,3-b][1,4]oxazin-7-yl)isoquinolin-3-yl)amino)-4-hydroxy-6-isopropyl-5,6-dihydro-4H-pyrazolo[1,5-d][1,4]diazepin-7(8H)-one], the “% IL-2 increase relative to untreated cells” value in assay [3] (assayed concentration 0.31 μM) was determined as 350%. `Cc1c(-c2cc3cc(Nc4cc5n(n4)CC(=O)NCC5)ncc3cc2F)cnc2c1NCCOC2` [Compound 230, 2-((7-fluoro-6-(9-methyl-1,2,3,5-tetrahydropyrido[3,2-e][1,4]oxazepin-8-yl)isoquinolin-3-yl)amino)-5,6-dihydro-4H-pyrazolo[1,5-d][1,4]diazepin-7(8H)-one]: the Ki at HPK1 [2] was 0.793 nM. Turning to `Cc1c(-c2cc3cc(Nc4cc5n(n4)CC(=O)N(C)CC5)ncc3cc2F)cnc2c1CNCCO2` [Compound 232, 2-((7-fluoro-6-(6-methyl-2,3,4,5-tetrahydropyrido[3,2-f][1,4]oxazepin-7-yl)isoquinolin-3-yl)amino)-6-methyl-5,6-dihydro-4H-pyrazolo[1,5-d][1,4]diazepin-7(8H)-one], at HPK1 [2], the Ki turned out to be 11 nM. Same read-out and setting: with `Cc1ncc(-c2cc(F)c3cnc(Nc4cc5n(n4)CC(=O)NCC5)cc3c2)c(C)c1N` [Compound 233, 2-((6-(5-amino-4,6-dimethylpyridin-3-yl)-8-fluoroisoquinolin-3-yl)amino)-5,6-dihydro-4H-pyrazolo[1,5-d][1,4]diazepin-7(8H)-one] the figure was 0.155 nM. On the same count and under the same terms, with `Cc1c(CC#N)cncc1-c1cc(F)c2cnc(Nc3cc4n(n3)CC(=O)NCC4)cc2c1` [Compound 238, 2-(5-(8-fluoro-3-((7-oxo-5,6,7,8-tetrahydro-4H-pyrazolo[1,5-d][1,4]diazepin-2-yl)amino)isoquinolin-6-yl)-4-methylpyridin-3-yl)acetonitrile] the figure was 0.076 nM.

Take `Cc1c(NCC(F)(F)F)cncc1-c1cc2cc(Nc3cc4n(n3)CC(=O)NCC4)ncc2cc1F` [Compound 239, 2-((7-fluoro-6-(4-methyl-5-((2,2,2-trifluoroethyl)amino)pyridin-3-yl)isoquinolin-3-yl)amino)-5,6-dihydro-4H-pyrazolo[1,5-d][1,4]diazepin-7(8H)-one]: on HPK1 [2], the Ki came to 0.062 nM. Still for that read-out and setting: to `Cc1c(-c2cc3cc(Nc4cc5n(n4)CC(=O)N(C)CC5)ncc3cc2F)cnc2c1NCC(C)(C)C2=O` [Compound 240, 2-((7-fluoro-6-(4,7,7-trimethyl-8-oxo-5,6,7,8-tetrahydro-1,5-naphthyridin-3-yl)isoquinolin-3-yl)amino)-6-methyl-5,6-dihydro-4H-pyrazolo[1,5-d][1,4]diazepin-7(8H)-one] belongs 0.014 nM. Still for that read-out and setting: with `Cc1c(-c2cc3cc(Nc4cc5n(n4)CC(=O)N(C)OC5)ncc3cc2F)cnc2c1NCCO2` [Compound 244, 2-((7-fluoro-6-(8-methyl-2,3-dihydro-1H-pyrido[2,3-b][1,4]oxazin-7-yl)isoquinolin-3-yl)amino)-6-methyl-4H,6H-pyrazolo[1,5-e][1,2,5]oxadiazepin-7(8H)-one] the figure was 0.013 nM.

The values above are taken from patent US12378249B2, “Isoquinoline compounds and uses thereof” (Genentech, Inc., priority 2018, dated 2025).
